This is an account of results in patent US6541480B2, “1-aryl-1,8-naphthylidin-4-one derivative as type IV phosphodiesterase inhibitor” (Suntory Limited, priority 1997, dated 2003).

Structures are written as SMILES. Structures can show the parent of a compound that is named as a salt.

The test concerns type IV phosphodiesterase. The test is described as follows: Type IV phosphodiesterase inhibiting activity (3H-cAMP hydrolysis, PDE IV fraction from U937 cells). Type of test: biochemical. The following applies: PDE IV fraction from human U937 cells, 30° C., 30 minutes. The method, then:
(1) Method of Measurement of Type IV Phosphodiesterase Inhibiting Activity
The following assay was used to evaluate the ability of the compound of the present invention to suppress type IV phosphodiesterase, according to Biochemical.
1) Type IV phosphodiesterase activity fractions were prepared as follows. Human histiocytic lymphoma cell line U937 was cultured in an RPMI1640 medium containing 10% fetal calf serum to obtain 10^9 cells of U937. The cells were recovered by centrifugation and suspended in 40 ml of buffer A (20 mM bis-tris, 5 mM 2-mercaptoethanol, 2 mM benzamidine, 2 mM EDTA, 0.1 mM 4-(2-aminoethyl)benzensulfonyl hydrochloride, 50 mM sodium acetate, pH=6.5). The cells were broken by a sonication and centrifuged (4° C., 10,000G, 10 minutes) to obtain a supernatent. This was filtered by a 0.45 μm filter to obtain the soluble fraction.
The soluble fraction obtained was applied into a 1×10 cm DEAE Sepharose column equalibrated with the buffer A. 120 ml of the buffer A containing a linear gradient solution of 0.05 to 1 M sodium acetate was used to separate the phosphodiesterase and recover 24 5-ml fractions. Each of the fractions was measured for the cAMP phosphodiesterase activity.
2) The test compound was reacted at a desired concentration in a reaction mixture containing 20 mM tris-HCl (pH 7.5), 1 mM MgCl2, 100 μM EDTA, 330 μg/ml calf serum albumin, 10 μg/ml 5′-nucleotidase, 0.4 μCi ^3H-cAMP ([…] cAMP) and the type IV phosphodiesterase stored solution at 30° C. for 30 minutes. QAE-Sephadex suspended in 10 mM of hepes-Na (pH-7.0) was added to the reaction mixture which was then allowed to stand for 5 minutes, then the supernatant was obtained, QAE-Sephadex was further added, to the supernatant, and was allowed to stand for 5 minutes, then the supernatant was obtained and measured for radioactivity.
In general, IC50 refers to the concentration at which inhibition is half-maximal. Regarding `COc1ccccc1NC(=O)c1cn(-c2ccc(F)cc2)c2ncccc2c1=O` [Example 76, 1-(4-Fluorohenyl)-N-(2-methoxyphenyl)-1,4-dihydro[1,8]naphthylidin-4-one-3-carboxamide], the IC50 was 500 nM. Then `COCCNC(=O)c1cn(-c2ccc(F)cc2)c2ncccc2c1=O` [Example 59, 1-(4-fluorophenyl)-N-(2-methoxyethyl)-1,4-dihydro[1,8]naphthylidin-4-one-3-carboxamide], with 640 nM; and `O=C(Nc1ccncc1)c1cn(-c2cccc3cccnc23)c2ncccc2c1=O` [Example 149, 1-(8-Quinonyl)-N-(4-pyridyl)-1,4-dihydro[1,8]naphthylidin-4-one-3-carboxamide], with 940 nM; and `O=C(Nc1ccncc1)c1cn(-c2ccc(Cl)cc2)c2ncccc2c1=O` [Example 124, 1-(4-Chlorophenyl)-N-(4-pyridyl)-1,4-dihydro[1,8]naphthylidin-4-one-3-carboxamide], with 110 nM. The value for `Cc1ccc(-n2cc(C(=O)Nc3c(Cl)cncc3Cl)c(=O)c3cccnc32)cc1` [Example 121, N-(3,5-Dichloroiyridin-4-yl)-1-(4-tolyl)-1,4-dihydro[18]naphthylidin-4-one-3-carboxamide] was 3.1 nM; that for `O=C(Nc1cccnc1)c1cn(-c2ccccn2)c2ncccc2c1=O` [Example 131, 1-(2-Pyridyl)-N-(3-pyridyl)-1,4-dihydro[1,8]naphthylidin-4-one-3-carboxamide] was 590 nM.

Turning to `O=C(Nc1ccccc1-c1ccccc1)c1cn(-c2ccc(F)cc2)c2ncccc2c1=O` [Example 100, N-(2-Biphenyl)-1-(4-fluorophenyl)-1,4-dihydro[1,8]naphthylidin-4-one-3-carboxamide], the 50% inhibitory concentration (IC50) came to 650 nM. The value for `O=C(Nc1ccncc1)c1cn(-c2ccc(O)nc2)c2ncccc2c1=O` [Example 145, 1-(2-Hydroxypyridin-5-yl)-N-(4-pyridyl)-1,4-dihydro[1,8]naphthylidin-4-one-3-carboxamide] was 400 nM; that for `Cc1ccc(-n2cc(C(=O)Nc3ccncc3)c(=O)c3cccnc32)cc1` [Example 120, N-(4-Pyridyl)-1-(4-tolyl)-1,4-dihydro[1,8]naphthylidin-4-one-3-carboxamide] was 99 nM; that for `N=C(N)c1cccc(NC(=O)c2cn(-c3ccc(F)cc3)c3ncccc3c2=O)c1` [Example 97, N-(benzamidin-3-yl)-1-(4-fluorophenyl)-1,4-dihydro[1,8]naphthylidin-4-one-3-carboxamide hydrochloride] was 470 nM. Then `O=C(NCc1ccccn1)c1cn(-c2ccc(F)cc2)c2ncccc2c1=O` [Example 62, 1-(4-Fluorophenyl)-N-(2-pyridyl)methyl-1,4-dihydro[1,8]naphthylidin-4-one-3-carboxamide], with 1600 nM; and `O=C(NCc1cccnc1)c1cn(-c2ccc(F)cc2)c2ncccc2c1=O` [Example 63, 1-(4-Fluorophenyl)-N-(3-pyridyl)methyl-1,4-dihydro[1,8]naphthylidin-4-one-3-carboxamide], with 1200 nM; and `CCOC(=O)c1cn(-c2cccc(C(C)=O)c2)c2ncccc2c1=O` [Example 24, Ethyl 1-(3-Acetophenyl)-1,4-dihydro[1,8]naphthylidin-4-one-3-carboxylate], with 600 nM. The value for `COc1ccc(-n2cc(C(=O)Nc3c(Cl)cncc3Cl)c(=O)c3cccnc32)cc1` [Example 123, N-(3,5-Dichloropyridin-4-yl)-1-(4-methoxyphenyl)-1,4-dihydro[1,8]naphthyldin-4-one-3-carboxamide] was 0.6 nM; that for `CNC(=O)c1cn(-c2ccc(F)cc2)c2ncccc2c1=O` [Example 52, 1-(4-Fluorophenyl)-N-methyl-1,4-dihydro[1,8]naphthylidin-4-one-3-carboxamide] was 150 nM. `CCOC(=O)c1cn(-c2cccc([N+](=O)[O-])c2)c2ncccc2c1=O` [Example 19, Ethyl 1-(3-Nitrophenyl)-1,4-dihydro[1,8]naphthylidin-4-one-3-carboxylate] registered a half-inhibitory concentration (IC50) of 930 nM.
